Earlier results in patent US20130090296A1, “INJECTABLE FORMULATION OF A MACROCYCLIC LACTONE AND LEVAMISOLE” (priority 2010, published 2013).

Settings: previously found

pH required for stability: less than 4
Compound: c1ccc([C@H]2CN3CCSC3=N2)cc1 [levamisole]
